Test results: patent US20140088069A1, “NOVEL ANTIBACTERIAL COMBINATION THERAPY” (priority 2011, published 2014)
Like-named read-outs stand apart in the source and are kept apart here.

Key:
MRSA = assay: Analogues in combination with cefuroxime against MRSA (FIC index); format: cell-based, Staphylococcus aureus; settings: compound in combination with cefuroxime; MRSA (Table 5)
Method: A series of analogues were synthesized (as shown in Table 5) in which the thienopyridine ring was removed.
These were tested in combination with cefuroxime against MRSA and results are shown below (Table 6).

HA-MRSA USA100/800/NY = assay: Checkerboard (FIC) analysis, HA-MRSA USA100/800/NY; format: cell-based, Staphylococcus aureus; settings: for MIC: Staphylococcus aureus
HA-MRSA [1] = assay: Checkerboard (FIC) analysis, HA-MRSA (Table 1 r10); format: cell-based, Staphylococcus aureus; settings: for MIC: Staphylococcus aureus
CA-MRSA USA300 = assay: Checkerboard (FIC) analysis against CA-MRSA USA300; format: cell-based, Staphylococcus aureus; settings: for MIC: Staphylococcus aureus
Method: (§1) Here a matrix of drug concentrations were tested in combinations at the concentrations shown (μg/mL). Greyscale indicates growth—darker is more growth, lighter is less growth. FIC index is a measure of synergy and is calculated as follows: FIC index=FIC (cefuroxime)+FIC (drug compound).
(§2) The combination of ticlopidine and cefuroxime was further tested as above against a variety of S. aureus strains as shown in Table 1 below.
FIC index=FIC (β-lactam)+FTC (ticlopidine). […]

HA-MRSA [2] = assay: Checkerboard (FIC) analysis, HA-MRSA (Table 1 r13); format: cell-based, Staphylococcus aureus; settings: for MIC: Staphylococcus aureus
Method: (§3) Here a matrix of drug concentrations were tested in combinations at the concentrations shown (μg/mL). […] FIC index is a measure of synergy and is calculated as follows: FIC index=FIC (cefuroxime)+FIC (drug compound).

[3] = test system: S. aureus (Newman strain); assay: Checkerboard (FIC) analysis against S. aureus Newman; format: cell-based, Staphylococcus aureus; settings: for MIC: Staphylococcus aureus
CA-MRSA USA400/MW2 = assay: Checkerboard (FIC) analysis, CA-MRSA USA400/MW2; format: cell-based, Staphylococcus aureus; settings: for MIC: Staphylococcus aureus
HA-MRSA USA200/EMRSA16 = assay: Checkerboard (FIC) analysis, HA-MRSA USA200/EMRSA16; format: cell-based, Staphylococcus aureus; settings: for MIC: Staphylococcus aureus
HA-MRSA EMRSA15 = assay: Checkerboard (FIC) analysis, HA-MRSA EMRSA15; format: cell-based, Staphylococcus aureus; settings: for MIC: Staphylococcus aureus
SA178R1 = assay: Checkerboard (FIC) analysis, SA178R1; format: cell-based, Staphylococcus aureus; settings: for MIC: Staphylococcus aureus
S. aureus strains = test system: S. aureus strains
Method: as §1, §2

HA-MRSA [4] = assay: Checkerboard (FIC) analysis, HA-MRSA (Table 1 r16); format: cell-based, Staphylococcus aureus; settings: for MIC: Staphylococcus aureus
RN4220 = assay: Checkerboard (FIC) analysis, RN4220; format: cell-based, Staphylococcus aureus
Method: as §3

HA-MRSA USA600 = assay: Checkerboard (FIC) analysis, HA-MRSA USA600; format: cell-based, Staphylococcus aureus; settings: for MIC: Staphylococcus aureus
HA-MRSA USA500 = assay: Checkerboard (FIC) analysis, HA-MRSA USA500; format: cell-based, Staphylococcus aureus; settings: for MIC: Staphylococcus aureus
[5] = ticlopidine alone, read-out: MIC ticlopidine
[6] = cefuroxime alone, read-out: MIC cefuroxime

Clc1ccccc1CN1CCc2sccc2C1 [Compound 1, 5-(2-Chloro-benzyl)-4,5,6,7-tetrahydro-thieno[3,2-c]pyridine]
FIC index (MRSA): ≦0.125
MIC (HA-MRSA USA100/800/NY; [5]): > 256 µg/mL
FIC ticlopidine (HA-MRSA USA100/800/NY; in the presence of cefuroxime): 0.125
FIC index (HA-MRSA USA100/800/NY; ticlopidine + cefuroxime): ≦0.250
FIC ticlopidine (HA-MRSA [1]; HA-MRSA (Table 1 r10), in the presence of cefuroxime): 0.032
FIC index (HA-MRSA [1]; HA-MRSA (Table 1 r10), ticlopidine + cefuroxime): ≦0.282
MIC (HA-MRSA [1]; HA-MRSA (Table 1 r10), ticlopidine alone, read-out: MIC ticlopidine): > 256 µg/mL
FIC ticlopidine (CA-MRSA USA300; CA-MRSA USA300 (Table 1), in the presence of cefuroxime): 0.032
FIC index (CA-MRSA USA300; CA-MRSA USA300 (Table 1), ticlopidine + cefuroxime): ≦0.063
MIC (CA-MRSA USA300; CA-MRSA USA300 (Table 1), ticlopidine alone, read-out: MIC ticlopidine): > 256 µg/mL
MIC (CA-MRSA USA300; thienopyridine alone, CA-MRSA USA300 (Table 4), read-out: MIC thienopyridine): > 128 µg/mL
drug-drug interaction with cefuroxime (checkerboard secondary screen) (CA-MRSA USA300; in combination with cefuroxime): synergistic interactions
FIC thienopyridine (CA-MRSA USA300; in the presence of cefuroxime, CA-MRSA USA300 (Table 4)): 0.13
FIC index (CA-MRSA USA300; thienopyridine in combination with cefuroxime, CA-MRSA USA300 (Table 4)): ≦0.16
FIC index (CA-MRSA USA300; ticlopidine in combination with cefuroxime, CA-MRSA USA 300, FIG. 2): ≤ 0.12
FIC ticlopidine (HA-MRSA [2]; HA-MRSA (Table 1 r13), in the presence of cefuroxime): 0.016
FIC index (HA-MRSA [2]; HA-MRSA (Table 1 r13), ticlopidine + cefuroxime): ≦0.266
MIC (HA-MRSA [2]; HA-MRSA (Table 1 r13), ticlopidine alone, read-out: MIC ticlopidine): > 256 µg/mL
FIC ticlopidine ([3]; Newman, in the presence of cefuroxime): 0.125
FIC index ([3]; Newman, ticlopidine + cefuroxime): ≦0.250
MIC ([3]; Newman, ticlopidine alone, read-out: MIC ticlopidine): > 256 µg/mL
MIC (CA-MRSA USA400/MW2; [5]): > 256 µg/mL
FIC ticlopidine (CA-MRSA USA400/MW2; in the presence of cefuroxime): 0.063
FIC index (CA-MRSA USA400/MW2; ticlopidine + cefuroxime): ≦0.125
MIC (HA-MRSA USA200/EMRSA16; [5]): > 256 µg/mL
FIC ticlopidine (HA-MRSA USA200/EMRSA16; in the presence of cefuroxime): 0.063
FIC index (HA-MRSA USA200/EMRSA16; ticlopidine + cefuroxime): ≦0.095
MIC (HA-MRSA EMRSA15; [5]): > 256 µg/mL
FIC ticlopidine (HA-MRSA EMRSA15; in the presence of cefuroxime): 0.063
FIC index (HA-MRSA EMRSA15; ticlopidine + cefuroxime): ≦0.125
MIC (SA178R1; [5]): > 128 µg/mL
FIC ticlopidine (SA178R1; in the presence of cefuroxime): 1
FIC index (SA178R1; ticlopidine + cefuroxime): ≦2
methicillin-resistant strains (Canadian MRSA collection) in which potent synergy was retained (S. aureus strains; ticlopidine + cefuroxime, including USA300): 7 of 10
antibacterial activity alone (S. aureus strains; ticlopidine alone against the S. aureus strains of Table 1): no antibacterial activity alone
potentiation of the activity of the β-lactams (S. aureus strains; ticlopidine in combination with a β-lactam, even in β-lactam-resistant S. aureus): over 32 fold
FIC ticlopidine (HA-MRSA [4]; HA-MRSA (Table 1 r16), in the presence of cefuroxime): 0.063
FIC index (HA-MRSA [4]; HA-MRSA (Table 1 r16), ticlopidine + cefuroxime): ≦0.188
MIC (HA-MRSA [4]; HA-MRSA (Table 1 r16), ticlopidine alone, read-out: MIC ticlopidine): > 256 µg/mL
MIC (RN4220; Staphylococcus aureus, ticlopidine alone): > 128 µg/mL
FIC ticlopidine (RN4220; in the presence of cefuroxime): 1
FIC index (RN4220; ticlopidine + cefuroxime): ≦2
MIC (HA-MRSA USA600; [5]): > 256 µg/mL
FIC ticlopidine (HA-MRSA USA600; in the presence of cefuroxime): 0.032
FIC index (HA-MRSA USA600; ticlopidine + cefuroxime): ≦0.040
MIC (HA-MRSA USA500; [5]): > 256 µg/mL
FIC ticlopidine (HA-MRSA USA500; in the presence of cefuroxime): 1
FIC index (HA-MRSA USA500; ticlopidine + cefuroxime): ≦2

CO/N=C(\C(=O)N[C@@H]1C(=O)N2C(C(=O)O)=C(COC(N)=O)CS[C@H]12)c1ccco1 [Cefuroxime]
MIC (HA-MRSA USA100/800/NY; [6]): 1020 µg/mL
FIC cefuroxime (HA-MRSA USA100/800/NY; in the presence of ticlopidine): 0.125
FIC cefuroxime (HA-MRSA [1]; HA-MRSA (Table 1 r10), in the presence of ticlopidine): 0.250
MIC (HA-MRSA [1]; HA-MRSA (Table 1 r10, no further strain name), cefuroxime alone, read-out: MIC cefuroxime): > 2050 µg/mL
FIC cefuroxime (CA-MRSA USA300; CA-MRSA USA300 (Table 1), in the presence of ticlopidine): 0.032
MIC (CA-MRSA USA300; CA-MRSA USA300 (Table 1), cefuroxime alone, read-out: MIC cefuroxime): 512 µg/mL
MIC (CA-MRSA USA300; cefuroxime alone, CA-MRSA USA300 (Table 4), read-out: MIC Cefuroxime): 256 µg/mL
FIC index (CA-MRSA USA300; antibiotic in combination with ticlopidine, CA-MRSA USA 300, FIC (β-lactam)+FIC (ticlopidine)): ≦0.13
FIC cefuroxime (CA-MRSA USA300; in the presence of clopidogrel, CA-MRSA USA300 (Table 4)): 0.063
FIC cefuroxime (CA-MRSA USA300; in the presence of prasugrel, CA-MRSA USA300 (Table 4)): 0.25
FIC cefuroxime (CA-MRSA USA300; in the presence of ticlopidine, CA-MRSA USA300 (Table 4)): 0.03
FIC cefuroxime (HA-MRSA [2]; HA-MRSA (Table 1 r13), in the presence of ticlopidine): 0.250
MIC (HA-MRSA [2]; HA-MRSA (Table 1 r13, no further strain name), cefuroxime alone, read-out: MIC cefuroxime): > 2050 µg/mL
FIC cefuroxime ([3]; Newman, in the presence of ticlopidine): 0.125
MIC ([3]; Newman, cefuroxime alone, read-out: MIC cefuroxime): 2 µg/mL
FIC index ([3]; antibiotic in combination with ticlopidine, S. aureus (Newman strain)): ≦0.25
MIC (CA-MRSA USA400/MW2; [6]): 256 µg/mL
FIC cefuroxime (CA-MRSA USA400/MW2; in the presence of ticlopidine): 0.063
MIC (HA-MRSA USA200/EMRSA16; [6]): 1020 µg/mL
FIC cefuroxime (HA-MRSA USA200/EMRSA16; in the presence of ticlopidine): 0.032
MIC (HA-MRSA EMRSA15; [6]): 512 µg/mL
FIC cefuroxime (HA-MRSA EMRSA15; in the presence of ticlopidine): 0.063
MIC (SA178R1; [6]): 0.5 µg/mL
FIC cefuroxime (SA178R1; in the presence of ticlopidine): 1
FIC cefuroxime (HA-MRSA [4]; HA-MRSA (Table 1 r16), in the presence of ticlopidine): 0.125
MIC (HA-MRSA [4]; HA-MRSA (Table 1 r16, no further strain name), cefuroxime alone, read-out: MIC cefuroxime): 2050 µg/mL
FIC cefuroxime (RN4220; in the presence of ticlopidine): 1
MIC (HA-MRSA USA600; [6]): ≥ 1020 µg/mL
FIC cefuroxime (HA-MRSA USA600; in the presence of ticlopidine): 0.008
MIC (HA-MRSA USA500; [6]): 32 µg/mL
FIC cefuroxime (HA-MRSA USA500; in the presence of ticlopidine): 1
